In patent US12076364B2, “Use of interference peptide in preparation of anti-SARS-CoV-2 medicament” (KUNMING INSTITUTE OF ZOOLOGY, CHINESE ACADEMY OF SCIENCES, priority 2020, dated 2024):
Where a SMILES comes first, the peptide text is derived from it. Where no end group is shown, it is not given here.

Tested on: SARS-CoV-2
Settings: 48 h; for inhibition of viral infection: 80 μM peptide, Vero E6 cells

Molecule	inhibition of viral infection [%]	EC50 [µM]
SDWKTD [SD6, SDWKTD]	98	6.4
HPVTGQF [HF7, HPVTGQF]	89	11.4
DQTKFPIVNAEL-OH [DL12]	99	5
C[C@H](NC(=O)[C@@H](N)CCCNC(=N)N)C(=O)NCC(=O)N[C@@H](CCCCN)C(=O)O [RK4, RAGK] (H-RAGK-OH; N-terminus assumed)	99	10
